Assay results published in patent US11564394B2, “Distorted gold (I)-phosphine complexes and methods for use as antifungal agents” (University of Kentucky Research Foundation, priority 2019, dated 2023).

Columns and labels:
[1] = test system: C. albicans ATCC 10231(R) (strain B); type: cell-based, Candida albicans
[2] = test system: A. nidulans ATCC 38163 (strain Q); test: MIC determination (broth microdilution); type: cell-based, Aspergillus nidulans; settings: strain Q = A. nidulans ATCC 38163; MIC-0; 72 h at 35° C.
[3] = test system: A. terreus ATCC MYA-3633 (strain R); type: cell-based, Aspergillus terreus; settings: strain R = A. terreus ATCC MYA-3633; MIC-0; 72 h at 35° C.
[4] = test system: C. neoformans CN2 (strain O); test: MIC determination (broth microdilution); type: cell-based, Cryptococcus neoformans; settings: MIC-0, 72 h at 35° C.
[5] = test system: C. albicans ATCC 64124(R) (strain F); type: cell-based, Candida albicans; settings: strain F = C. albicans ATCC 64124(R); MIC-0; 48 h; listed as printed beside letter G
[6] = test system: C. auris AR Bank # 0384 (strain K); test: MIC determination (broth microdilution); type: cell-based, Candida auris; settings: strain K = C. auris AR Bank # 0384; MIC-0; 48 h (CAS read at 24 h); Table 1; also in Table 2
[7] = test system: C. krusei ATCC 6258 (strain I); test: MIC determination (broth microdilution); type: cell-based; settings: strain I = C. krusei ATCC 6258; MIC-0; 48 h; listed as split over r16 and r17 (r17 printed beside letter J)
[8] = test system: C. neoformans CN3 (strain P); test: MIC determination (broth microdilution); type: cell-based, Cryptococcus neoformans; settings: MIC-0, 72 h at 35° C.
[9] = test system: C. auris AR Bank # 0390 (strain L); test: MIC determination (broth microdilution); type: cell-based, Candida auris; settings: strain L = C. auris AR Bank # 0390; MIC-0; 48 h (CAS read at 24 h); Table 1 row printed without letter, below L; also in Table 2
[10] = test system: C. albicans ATCC MYA-1237(R) (strain C); type: cell-based, Candida albicans; settings: strain C = C. albicans ATCC MYA-1237(R); MIC-0; 48 h; listed as printed beside letter D
[11] = test system: C. neoformans ATCC MYA-85 (strain M); test: MIC determination (broth microdilution); type: cell-based, Cryptococcus neoformans; settings: strain M = C. neoformans ATCC MYA-85; MIC-0; 72 h at 35° C.
[12] = test system: A. flavus ATCC MYA-3631 (strain S); test: MIC determination (broth microdilution); type: cell-based, Aspergillus flavus; settings: strain S = A. flavus ATCC MYA-3631; MIC-0; 72 h at 35° C.
[13] = test system: F. graminearum 053 (strain T); type: cell-based, Fusarium graminearum; settings: strain T = F. graminearum 053; MIC-0; room temperature, 5 days
[14] = test system: C. albicans ATCC MYA-2876(S) (strain E); test: MIC determination (broth microdilution); type: cell-based, Candida albicans; settings: strain E = C. albicans ATCC MYA-2876(S); MIC-0; 48 h; listed as printed beside letter F
[15] = test system: C. glabrata ATCC 2001 (strain H); test: MIC determination (broth microdilution); type: cell-based, Candida glabrata; settings: strain H = C. glabrata ATCC 2001; MIC-0; 48 h at 35° C.
[16] = test system: fungal strains (Candida spp., Cryptococcus spp., Aspergillus spp., Fusarium spp.); test: MIC determination, summary statements over the strain panel; type: cell-based; settings: for overall assessment as antifungals: panel of twenty fungal strains (Table 1)
[17] = test system: C. albicans ATCC MYA-2310(S) (strain D); test: MIC determination (broth microdilution); type: cell-based, Candida albicans; settings: strain D = C. albicans ATCC MYA-2310(S); MIC-0; 48 h; listed as printed beside letter E
[18] = test system: C. albicans ATCC 90819(R) (strain G); type: cell-based, Candida albicans; settings: strain G = C. albicans ATCC 90819(R); MIC-0; 48 h; listed as printed without letter, below G
[19] = test system: C. parapsilosis ATCC 22019 (strain J); test: MIC determination (broth microdilution); type: cell-based; settings: strain J = C. parapsilosis ATCC 22019; MIC-0; 48 h; listed as printed beside letter K
[20] = test system: C. albicans ATCC MYA-1003(R) (strain A); type: cell-based, Candida albicans; settings: strain A = C. albicans ATCC MYA-1003(R); MIC-0; 48 h at 35° C.
[21] = test system: C. neoformans CN1 (strain N); test: MIC determination (broth microdilution); type: cell-based, Cryptococcus neoformans; settings: MIC-0, 72 h at 35° C.
[22] = Aspergillus spp., Fusarium spp. and most of the non-albicans Candida strains

## [Cl][Au-][P+](c1ccccc1)(c1ccccc1)c1ccccc1[P+]([Au-][Cl])(c1ccccc1)c1ccccc1 [Compound 1, [1,2-bis(diphenylphosphino)benzene]digold(I)]
[1]
  MIC: 15.6 (17.1) μg/mL
  MIC (in parentheses): 15.6 (17.1) μM
[2]
  MIC: > 31.3 µg/mL
  MIC (in parentheses): > 34.3 µM
[3]
  MIC: > 31.3 µg/mL
  MIC (in parentheses): > 34.3 µM
[4]
  MIC: 3.9 µg/mL
  MIC (in parentheses): 4.3 µM
[5]
  MIC: 7.8 µg/mL
  MIC (in parentheses): 8.6 µM
[6]
  MIC: > 31.3 µg/mL
  MIC (in parentheses): > 34.3 µM
[7]
  MIC: 15.6 µg/mL
  MIC (in parentheses): 17.1 µM
[8]
  MIC: 15.6 µg/mL
  MIC (in parentheses): 17.1 µM
[9]
  MIC: > 31.3 µg/mL
  MIC (in parentheses): > 34.3 µM
[10]
  MIC: 0.49 µg/mL
  MIC (in parentheses): 5.4 µM
[11]
  MIC: 0.98 µg/mL
  MIC (in parentheses): 1.1 µM
[12]
  MIC: > 31.3 µg/mL
  MIC (in parentheses): > 34.3 µM
[13]
  MIC: > 31.3 µg/mL
  MIC (in parentheses): > 34.3 µM
[14]
  MIC: 7.8 µg/mL
  MIC (in parentheses): 8.6 µM
[15]
  MIC: 7.8 µg/mL
  MIC (in parentheses): 8.6 µM
[16]; [22]
  antifungal activity: inactive
[16]
  overall assessment as antifungals: poor antifungals
[17]
  MIC: 7.8 µg/mL
  MIC (in parentheses): 8.6 µM
[18]
  MIC: 7.8 µg/mL
  MIC (in parentheses): 8.6 µM
[19]
  MIC: 15.6 µg/mL
  MIC (in parentheses): 17.1 µM
[20]
  MIC: 3.9 µg/mL
  MIC (in parentheses): 4.3 µM
[21]
  MIC: 3.9 µg/mL
  MIC (in parentheses): 4.3 µM

## [Cl-].c1ccc([P+]2(c3ccccc3)c3ccccc3[P+](c3ccccc3)(c3ccccc3)[Au-3]23[P+](c2ccccc2)(c2ccccc2)c2ccccc2[P+]3(c2ccccc2)c2ccccc2)cc1 [Compound 2, bis-[1,2-bis(diphenylphosphino)benzene]gold(1)]
[1]
  MIC: 15.6 (13.9) μg/mL
  MIC (in parentheses): 15.6 (13.9) μM
[2]
  MIC: > 31.3 µg/mL
  MIC (in parentheses): > 27.8 µM
[3]
  MIC: > 31.3 µg/mL
  MIC (in parentheses): > 27.8 µM
[4]
  MIC: 3.9 µg/mL
  MIC (in parentheses): 3.5 µM
[5]
  MIC: 7.8 µg/mL
  MIC (in parentheses): 6.9 µM
[6]
  MIC: > 31.3 µg/mL
  MIC (in parentheses): > 27.8 µM
[7]
  MIC: 15.6 µg/mL
  MIC (in parentheses): 13.9 µM
[8]
  MIC: 3.9 µg/mL
  MIC (in parentheses): 3.5 µM
[9]
  MIC: > 31.3 µg/mL
  MIC (in parentheses): > 27.8 µM
[10]
  MIC: 15.6 µg/mL
  MIC (in parentheses): 13.9 µM
[11]
  MIC: 3.9 µg/mL
  MIC (in parentheses): 3.5 µM
[12]
  MIC: > 31.3 µg/mL
  MIC (in parentheses): > 27.8 µM
[13]
  MIC: 31.3 µg/mL
  MIC (in parentheses): 27.8 µM
[14]
  MIC: 7.8 µg/mL
  MIC (in parentheses): 6.9 µM
[15]
  MIC: 7.8 µg/mL
  MIC (in parentheses): 6.9 µM
[16]; [22]
  antifungal activity: inactive
[16]
  overall assessment as antifungals: poor antifungals
[17]
  MIC: 7.8 µg/mL
  MIC (in parentheses): 6.9 µM
[18]
  MIC: 7.8 µg/mL
  MIC (in parentheses): 6.9 µM
[19]
  MIC: 7.8 µg/mL
  MIC (in parentheses): 6.9 µM
[20]
  MIC: 15.6 µg/mL
  MIC (in parentheses): 13.9 µM
[21]
  MIC: 3.9 µg/mL
  MIC (in parentheses): 3.5 µM

## CC1CCC(C)[P+]1([Au-][Cl])c1ccccc1[P+]1([Au-][Cl])C(C)CCC1C [Compound 3, [1,2-bis[(2S,5S)-2,5-dimethylphospholano]benzene]digold(1)]
[1]
  MIC: >31.3 (40.6) μg/mL
  MIC (in parentheses): >31.3 (40.6) μM
[2]
  MIC: > 31.3 µg/mL
  MIC (in parentheses): > 40.6 µM
[3]
  MIC: > 31.3 µg/mL
  MIC (in parentheses): > 40.6 µM
[4]
  MIC: 31.3 µg/mL
  MIC (in parentheses): 40.6 µM
[5]
  MIC: 31.3 µg/mL
  MIC (in parentheses): 40.6 µM
[6]
  MIC: > 31.3 µg/mL
  MIC (in parentheses): > 40.6 µM
[7]
  MIC: > 31.3 µg/mL
  MIC (in parentheses): > 40.6 µM
[8]
  MIC: > 31.3 µg/mL
  MIC (in parentheses): > 40.6 µM
[9]
  MIC: > 31.3 µg/mL
  MIC (in parentheses): > 40.6 µM
[10]
  MIC: > 31.3 µg/mL
  MIC (in parentheses): 40.6 µM
[11]
  MIC: 1.95 µg/mL
  MIC (in parentheses): 2.5 µM
[12]
  MIC: > 31.3 µg/mL
  MIC (in parentheses): > 40.6 µM
[13]
  MIC: > 31.3 µg/mL
  MIC (in parentheses): > 40.6 µM
[14]
  MIC: 31.3 µg/mL
  MIC (in parentheses): 40.6 µM
[15]
  MIC: > 31.3 µg/mL
  MIC (in parentheses): > 40.6 µM
[16]; all fungal strains tested, except C. neoformans (strain M)
  antifungal activity: completely inactive
[16]
  overall assessment as antifungals: poor antifungals
[17]
  MIC: 31.3 µg/mL
  MIC (in parentheses): 40.6 µM
[18]
  MIC: 31.3 µg/mL
  MIC (in parentheses): 40.6 µM
[19]
  MIC: > 31.3 µg/mL
  MIC (in parentheses): > 40.6 µM
[20]
  MIC: 31.3 µg/mL
  MIC (in parentheses): 40.6 µM
[21]
  MIC: > 31.3 µg/mL
  MIC (in parentheses): > 40.6 µM

## CC1CCC(C)[P+]1([Au-][Cl])c1ccccc1[P+]1([Au-][Cl])C(C)CCC1C [Compound 5, [1,2-bis[(2R,5R)-2,5-dimethylphospholano]benzene]digold(1)]
[1]
  MIC: 31.3 (40.6) μg/mL
  MIC (in parentheses): 31.3 (40.6) μM
[2]
  MIC: > 31.3 µg/mL
  MIC (in parentheses): > 40.6 µM
[3]
  MIC: > 31.3 µg/mL
  MIC (in parentheses): > 40.6 µM
[4]
  MIC: 7.8 µg/mL
  MIC (in parentheses): 10.1 µM
[5]
  MIC: 15.6 µg/mL
  MIC (in parentheses): 20.2 µM
[6]
  MIC: > 31.3 µg/mL
  MIC (in parentheses): > 40.6 µM
[7]
  MIC: 31.3 µg/mL
  MIC (in parentheses): 40.6 µM
[8]
  MIC: 7.8 µg/mL
  MIC (in parentheses): 10.1 µM
[9]
  MIC: > 31.3 µg/mL
  MIC (in parentheses): > 40.6 µM
[10]
  MIC: 15.6 µg/mL
  MIC (in parentheses): 20.2 µM
[11]
  MIC: 0.12 µg/mL
  MIC (in parentheses): 0.2 µM
[12]
  MIC: > 31.3 µg/mL
  MIC (in parentheses): > 40.6 µM
[13]
  MIC: > 31.3 µg/mL
  MIC (in parentheses): > 40.6 µM
[14]
  MIC: 15.6 µg/mL
  MIC (in parentheses): 20.2 µM
[15]
  MIC: 15.6 µg/mL
  MIC (in parentheses): 20.2 µM
[16]; [22]
  antifungal activity: inactive
[16]
  overall assessment as antifungals: poor antifungals
[17]
  MIC: 7.8 µg/mL
  MIC (in parentheses): 10.1 µM
[18]
  MIC: 7.8 µg/mL
  MIC (in parentheses): 10.1 µM
[19]
  MIC: 15.6 µg/mL
  MIC (in parentheses): 20.2 µM
[20]
  MIC: 3.9 µg/mL
  MIC (in parentheses): 5.1 µM
[21]
  MIC: 15.6 µg/mL
  MIC (in parentheses): 20.2 µM
